From patent US20120202822A1, “COMBINATION” (priority 2009, published 2012) come the findings set out here.

What all share (assay): Fixed Ratio Drug Combination Assay, cell proliferation (CellTiter Glo)
Common to all, as to assay type: cell-based, human

One assay deals with HT29. To be noted: for Ymin/T0: 72 hours; for IC50: Homo sapiens, HT-29, 72 hours, read-out: gIC50. The protocol:
(§1) Combination drug tests with Compounds A and B were conducted using a panel of cell lines from human colon cancers (n=25) (Table 1). Cell lines were purchased commercially [from ATCC (Manassas, Va., USA) or DSMZ (Braunschweig, Germany)] and grown in RPMI-1640 supplemented with 2 mM glutamine, 1 mM sodium pyruvate and 10% fetal bovine serum and maintained at 37° C. and 5% CO2 in a humid incubator.
(§2) The dilution design of the Fixed Ratio Drug Combination Assay can be seen in FIG. 1. First, the test compounds were prepared as 10 mM stocks in 100% dimethyl sulfoxide (DMSO). Further dilutions of the compounds were made with DMSO. The first test compound (designated as Compound A) is diluted horizontally in a 96 well microtiter plate in rows B-E using a 3-fold dilution series for 10 dilution points. A second test compound (designated as Compound B) is diluted horizontally in a separate 96 well microtiter plate in rows D-G using a 3-fold dilution series for 10 dilution points. The two compounds are combined using equal volumes from each drug plate into cell culture media. […] Compound A is individually titrated in rows B and C, while only Compound B is dosed in rows F and G of the plate. An additional 1:10 dilution of the drugs is performed in cell culture media prior to addition to the cells. Drug addition to the cells results in a further 1:2 dilution of drugs. The total dilution of the drug plate to the cells is […]. The final dosing concentration range for Compound B was 0.1-1000.0 nM and was 0.5-10000.0 nM for Compound A. The positive control consists of culture media with DMSO at 0.1% and cells and no drug. The negative control consists of culture media with DMSO at 0.1%. solution.
(§3) Assays were performed in 96 well microtiter plates with appropriate seeding densities estimated from previous studies of each cell line. Following dosing, the cell lines are incubated at 37° C., 5% CO2 in humid air for 72 hours. Cell proliferation was measured using the CellTiter Glo (Promega Corporation, Madison, Wis., USA) reagent according to the manufacturer's protocol. The plates are treated with CellTiter Glo solution and are analyzed for RLU (relative light units) using a Molecular Devices SpectraMax M5 (Sunnyvale, Calif., USA) plate reader.
(§4) Results are expressed as a percentage of the number of cells present at the time of compound addition value (T0) and plotted against compound(s) concentration. The percent intensity values were used in model 205 of the IDBS XLfit plug-in for Microsoft Excel to calculate gIC50 values using a 4 parameter logistical fit. Background correction is made by subtraction of values from wells containing no cells. The midpoint of the growth window (the gIC50) falls half way between the number of cells at the time of compound addition and the growth of control cells treated with DMSO at 72 hrs. The number of cells at time zero is divided from the intensity value at the bottom of the response curve (Ymin) to generate a measure for cell death (Ymin/T0). A value below 1 for Ymin/T0 indicates stronger potency with the treatment when compared to higher values. For duplicate assays, all response metrics are averaged for presentation.
(§5) Three independent metrics were used to analyze the combinatorial effects on growth inhibition of Compound B and Compound A. • 1. Excess over Highest Single Agent (EOHSA)—One standard criterion for measuring drug combinatorial effects is analyzing the effects on cell growth inhibition in absolute terms. In this case, the combination of drugs is compared to the more responsive of the two individual treatments (single agent). For each combination experiment, the percent effect relative to the highest single agent for each dose along the curve is generated. This measure of “Excess of Highest Single Agent (EOHSA)” is one of the criteria used for evaluating synergy of drug combinations. […]

The test system of the next assay is SW48. To be noted: 72 hours; for IC50: Homo sapiens, read-out: gIC50. As to the method:
as §1, §2, §3, §4, §5

The subject of another assay is COLO320DM. To be noted: 72 hours; for IC50: Homo sapiens, COLO 320DM, read-out: gIC50. As to the method: as §1, §2, §3, §4, §5

In the case of `CC(C)(C)c1nc(-c2cccc(NS(=O)(=O)c3c(F)cccc3F)c2F)c(-c2ccnc(N)n2)s1` [Compound A, N-{3-[5-(2-amino-4-pyrimidinyl)-2-(1,1-dimethylethyl)-1,3-thiazol-4-yl]-2-fluorophenyl}-2,6-difluorobenzenesulfonamide], the Ymin/T0 came to 4.0 with HT29, 4.7 with SW48 and 4.9 in the assay with COLO320DM. Also, the IC50 was 17.2 nM with HT29, over 10000 nM in the assay on SW48 and over 10000 nM in the assay with COLO320DM.

For the compound `COc1ncc(-c2ccc3nccc(-c4ccnnc4)c3c2)cc1NS(=O)(=O)c1ccc(F)cc1F` [Compound B, 2,4-difluoro-N-{2-(methyloxy)-5-[4-(4-pyridazinyl)-6-quinolinyl]-3-pyridinyl}benzenesulfonamide], the Ymin/T0 in the assay on HT29 is 2.0; with SW48, 0.4; with COLO320DM it was 1.5. In addition, the results for the IC50 in the assay with HT29, in the assay on SW48 and in the assay with COLO320DM were 7.4 nM, 2.6 nM and 4.7 nM, respectively.
